In patent US10377742B2, “AMPK-activating heterocyclic compounds and methods for using the same” (Rigel Pharmaceuticals, Inc., priority 2010, dated 2019):

target: AMPK; assay: AMPK activation, enzyme-linked immunosorbent assay; type: biochemical
Procedure: Compounds were assayed for their ability to activate AMPK using an enzyme-linked immunosorbent assay. Reagents and procedures for measuring AMPK activation are well known and kits for AMPK activation assays are commercially available.

SMILES	EC50 [nM]
N#Cc1ccc(O[C@H]2CC[C@@H](NC(=O)c3ccc(C(=O)N4CCC(Oc5ccc(C(F)(F)F)cc5)CC4)cn3)CC2)cc1F [Compound 199, N-((cis)-4-(4-cyano-3-fluorophenoxy)cyclohexyl)-5-(4-(4-(trifluoromethyl)phenoxy)piperidine-1-carbonyl)picolinamide]	< 500
N#Cc1ccc(OC2CCN(C(=O)c3ccc(C(=O)N[C@H]4CC[C@@H](Oc5ccc(F)cc5)CC4)nc3)CC2)cc1 [Compound 303, 5-(4-(4-cyanophenoxy)piperidine-1-carbonyl)-N-((cis)-4-(4-fluorophenoxy)cyclohexyl)picolinamide]	< 500
N#Cc1ccc(CN2CC[C@@H](NC(=O)c3ccc(C(=O)N4CCC(Oc5ccc(S(=O)(=O)C(F)(F)F)cc5)CC4)nc3)C(F)C2)cc1 (stereo in doubt) [Compound 451, N-((3S,4R)-1-(4-cyanobenzyl)-3-fluoropiperidin-4-yl)-6-(4-(4-(trifluoromethylsulfonyl)phenoxy)piperidine-1-carbonyl)nicotinamide]	< 500
COc1ccc(C(=O)C2CCN(C(=O)c3ccc(C(=O)N[C@@H]4CCN(Cc5csc(C)n5)C[C@@H]4F)cn3)CC2)cc1 [Compound 427, N-((3S,4R)-3-fluoro-1-((2-methylthiazol-4-yl)methyl)piperidin-4-yl)-6-(4-(4-methoxybenzoyl)piperidine-1-carbonyl)nicotinamide]	1000 to 5000
CS(=O)(=O)c1ccc(N2CCC(NC(=O)c3ccc(C(=O)N4CCN(Cc5ccc(F)cc5)CC4)nc3)CC2)cc1 [Compound 421, 6-(4-(4-fluorobenzyl)piperazine-1-carbonyl)-N-(1-(4-(methylsulfonyl)phenyl)piperidin-4-yl)nicotinamide]	1000 to 5000
N#Cc1ccc(CN2CCC(NC(=O)c3ccc(C(=O)N4CCC(Oc5ccc(C#N)cc5)CC4)nn3)CC2)cc1 [Compound 388, N-(1-(4-cyanobenzyl)piperidin-4-yl)-6-(4-(4-cyanophenoxy)piperidine-1-carbonyl)pyridazine-3-carboxamide]	< 500
N#Cc1ccc(O[C@H]2CC[C@@H](NC(=O)c3ccc(C(=O)N4CCC(C(=O)c5ccc(N6CCCC6)cc5)CC4)nc3)CC2)cc1 [Compound 442, N-((cis)-4-(4-cyanophenoxy)cyclohexyl)-6-(4-(4-(pyrrolidin-1-yl)benzoyl)piperidine-1-carbonyl)nicotinamide]	< 500
N#Cc1ccc(OC2CCN(C(=O)c3ccc(C(=O)N[C@H]4CC[C@@H](Oc5ccc(C#N)cc5)CC4)cn3)CC2)cc1 [Compound 321, N-((cis)-4-(4-cyanophenoxy)cyclohexyl)-6-(4-(4-cyanophenoxy)piperidine-1-carbonyl)nicotinamide]	< 500
COc1ccc(C(=O)C2CCN(C(=O)c3ccc(C(=O)N[C@@H]4CCN(Cc5ccc(C#N)c(F)c5)C[C@H]4F)cn3)CC2)cc1 (relative stereo) [Compound 354, N-((trans)-1-(4-cyano-3-fluorobenzyl)-3-fluoropiperidin-4-yl)-6-(4-(4-methoxybenzoyl)piperidine-1-carbonyl)nicotinamide]	< 500
N#Cc1ccc(O[C@H]2CC[C@@H](NC(=O)c3ccc(C(=O)N4CCC(Oc5cccc(NC(=O)C6CC6)c5)CC4)nc3)CC2)cc1 [Compound 434, N-((cis)-4-(4-cyanophenoxy)cyclohexyl)-6-(4-(3-(cyclopropanecarboxamido)phenoxy)piperidine-1-carbonyl)nicotinamide]	< 500
COc1ccc(C(=O)C2CCN(C(=O)c3ccc(C(=O)N[C@@H]4CCN(Cc5ccc(OC(C)C)cc5)C[C@H]4F)cn3)CC2)cc1 (relative stereo) [Compound 353, N-((trans)-3-fluoro-1-(4-isopropoxybenzyl)piperidin-4-yl)-6-(4-(4-methoxybenzoyl)piperidine-1-carbonyl)nicotinamide]	< 500
COc1ccc(C(=O)C2CCN(C(=O)c3ccc(C(=O)N[C@H]4CC[C@@H](Oc5ccc(F)cc5)CC4)cn3)CC2)cc1 [Compound 316, N-((cis)-4-(4-fluorophenoxy)cyclohexyl)-6-(4-(4-methoxybenzoyl)piperidine-1-carbonyl)nicotinamide]	< 500
CC(=O)c1ccc(OC2CCN(C(=O)c3ccc(C(=O)NC4CCC(Oc5ccc(C#N)cc5)CC4)cn3)CC2)cc1 (stereo not shown) [Compound 402, 6-(4-(4-acetylphenoxy)piperidine-1-carbonyl)-N-(4-(4-cyanophenoxy)cyclohexyl)nicotinamide]	< 500

More lines, now with the values ahead:

EC50 [nM]	SMILES
< 500	COc1ccc(C(=O)C2CCN(C(=O)c3ccc(C(=O)N[C@@H]4CCN(Cc5ccc(OC(F)(F)F)cc5)C[C@H]4F)cn3)CC2)cc1 (relative stereo) [Compound 350, N-((trans)-3-fluoro-1-(4-(trifluoromethoxy)benzyl)piperidin-4-yl)-6-(4-(4-methoxybenzoyl)piperidine-1-carbonyl)nicotinamide]
< 500	O=C(N[C@H]1CC[C@@H](Oc2ccc(F)cc2)CC1)c1ccc(C(=O)N2CCC(C(=O)c3ccc(F)cc3)CC2)cn1 [Compound 304, 5-(4-(4-fluorobenzoyl)piperidine-1-carbonyl)-N-((cis)-4-(4-fluorophenoxy)cyclohexyl)picolinamide]
< 500	N#Cc1ccc(CN2CCc3ccc(NC(=O)c4ccc(C(=O)N5CCN(Cc6ccc(F)cc6)CC5)cn4)cc3C2)cc1 [Compound 132, N-(2-(4-cyanobenzyl)-1,2,3,4-tetrahydroisoquinolin-7-yl)-5-(4-(4-fluorobenzyl)piperazine-1-carbonyl)picolinamide]
< 500	COc1ccc(C(=O)C2CCN(C(=O)c3ccc(C(=O)N[C@@H]4CCN(Cc5ccc(C#N)cc5)C[C@@H]4F)cn3)CC2)cc1 (relative stereo) [Compound 454, N-((cis)-1-(4-cyanobenzyl)-3-fluoropiperidin-4-yl)-6-(4-(4-methoxybenzoyl)piperidine-1-carbonyl)nicotinamide]
< 500	N#Cc1ccc(OC2CCN(C(=O)c3ccc(C(=O)N[C@H]4CC[C@@H](Oc5ccc(F)cc5)CC4)cn3)CC2)cc1 [Compound 324, 6-(4-(4-cyanophenoxy)piperidine-1-carbonyl)-N-((cis)-4-(4-fluorophenoxy)cyclohexyl)nicotinamide]
< 500	COc1ccc(C(=O)C2CCN(C(=O)c3ccc(C(=O)N[C@@H]4CCN(Cc5cc(C)on5)C[C@@H]4F)cn3)CC2)cc1 [Compound 426, N-((3S,4R)-3-fluoro-1-((5-methylisoxazol-3-yl)methyl)piperidin-4-yl)-6-(4-(4-methoxybenzoyl)piperidine-1-carbonyl)nicotinamide]
< 500	N#Cc1ccc(O[C@H]2CC[C@@H](NC(=O)c3ccc(C(=O)N4CCN(Cc5ccc(F)cc5)CC4)nc3)CC2)cc1 [Compound 332, N-((cis)-4-(4-cyanophenoxy)cyclohexyl)-6-(4-(4-fluorobenzyl)piperazine-1-carbonyl)nicotinamide]
< 500	COc1ccc(C(=O)C2CCN(C(=O)c3ccc(C(=O)N[C@H]4CC[C@@H](Oc5ccc(F)cc5)CC4)nc3)CC2)cc1 [Compound 311, N-((cis)-4-(4-fluorophenoxy)cyclohexyl)-5-(4-(4-methoxybenzoyl)piperidine-1-carbonyl)picolinamide]
< 500	COc1ccc(C(=O)C2CCN(C(=O)c3ccc(C(=O)N[C@H]4CC[C@@H](Oc5cc(F)cc(F)c5)CC4)nc3)CC2)cc1 [Compound 300, N-((cis)-4-(3,5-difluorophenoxy)cyclohexyl)-5-(4-(4-methoxybenzoyl)piperidine-1-carbonyl)picolinamide]
< 500	O=C(N[C@H]1CC[C@@H](Oc2ccc(F)cc2)CC1)c1ccc(C(=O)N2CCC(Oc3ccc(F)cc3)CC2)cn1 [Compound 312, N-((cis)-4-(4-fluorophenoxy)cyclohexyl)-5-(4-(4-fluorophenoxy)piperidine-1-carbonyl)picolinamide]
< 500	N#Cc1ccc(CN2CCC(NC(=O)c3ccc(C(=O)N4CCC(Cc5ccccc5)CC4)cn3)CC2)cc1 [Compound 124, 5-(4-benzylpiperidine-1-carbonyl)-N-(1-(4-cyanobenzyl)piperidin-4-yl)picolinamide]
500 to 1000	N#Cc1ccc(CN2CCC(NC(=O)c3ccc(Nc4ccc(Cc5ccccc5)cc4)cn3)CC2)cc1 [Compound 108, 5-(4-benzylphenylamino)-N-(1-(4-cyanobenzyl)piperidin-4-yl)picolinamide]
